The source of these data is US8168646B2, “3,4-dihydroquinazoline derivatives” (Dongwoo Syntech Co., Ltd., priority 2007, dated 2012).

In assay [1] the test system is human prostate cancer (DU 145). As to the kind of experiment: Growth inhibition, SRB assay, DU 145. Type of assay: cell-based. Conditions: 72 hours, three independent experiments, read-out: Growth inhibition of cancer cell: GI50, DU 145. How it is done:
(§1) T-type calcium channel blocking effects of the compounds of the present invention were tested according to an electrophysiological whole-cell patch-clamp method, which uses mammalian HEK293 cell line selectively expressing α1G among T-type calcium channel encoding genes, wherein the α1G is mainly expressed at nerve cells (derived from […]), as described in Korean Patent No. 0610731 and Monteil, A., et al., J. Biol. Chem. 2000, 275, 6090-6100. Also, cytotoxicities of the compounds according to the present invention were tested according to a 3-(4,5-dimethylthiazol-2-yl)-2,5-diphenyltetrazolium bromide (MTT) assay. Further, growth inhibition effects against cancer cell lines of the compounds according to the present invention were tested according to a sulforhodamine B (SRB) assay, as disclosed in Skehan, P. et al., J. Natl Cancer Inst. 1990, 82, 1107-1112.
(§2) Experiment 3: Analysis for Growth Inhibition Against Cancer Cell Lines Using SRB Assay
(§3) The compounds according to the present invention were evaluated for their growth inhibition against five cancer cell lines, including human lung carcinoma (A-549), human prostate cancer (DU 145), human colon cancer (HT-29), human malignant melanoma (SK-MEL-2) and human ovarian cancer (SK-OV-3) using sulforhodamine B (SRB) assay. All cell lines were grown in RPMI 1640 (Gibco BRL) supplemented with 10% (v/v) heat-inactivated fetal bovine serum (FBS) and maintained at 37° C. in a humidified atmosphere with 5% CO2. The cells were seeded into 96-well plate. Various concentrations of compounds were added to each well in triplicate and then incubated at 37° C. with 5% CO2 for 72 hours such that cells are in the exponential phase of growth at the time of drug addition. After incubation, 100 μL of formalin solution was gently added to the wells. Microplates were left for 30 min at room temperature and washed five times with tap water. One hundred microliters of 0.4% SRB solution was added to each well and left at room temperature for 30 min. SRB was removed and the plates were washed five times with 1% acetic acid before air-drying. Bound SRB was solubilized with 100 μL of 10 mM unbuffered Tris-base solution (Sigma) and plates were left on a plate shaker for at least 10 min. The optical density was measured using a microplate reader (Versamax, Molecular Devices) with a 520 nm wavelength and the growth inhibition concentration was expressed as GI50.

Assay [2] concerns human malignant melanoma (SK-MEL-2). As to the kind of experiment: Growth inhibition, SRB assay, SK-MEL-2. The class given is cell-based. The following applies: 72 hours, three independent experiments, read-out: Growth inhibition of cancer cell: GI50, SK-MEL-2. How it is done: as §1, §2, §3
The test system of assay [3] is human colon cancer (HT-29). Kind of assay: Growth inhibition, SRB assay, HT-29. The class given is cell-based. The following applies: for GI50: Homo sapiens, HT-29, SRB assay, 72 hours, three independent experiments, read-out: Growth inhibition of cancer cell: GI50, HT-29. On the procedure: as §1, §2, §3
The subject of assay [4] is human lung carcinoma (A-549). As to the kind of experiment: Growth inhibition, SRB assay, A-549. The class given is cell-based. The following applies: A549, 72 hours, three independent experiments, read-out: Growth inhibition of cancer cell: GI50, A-549. On the procedure:
as §1, §2, §3

Assay [5] relates to human ovarian cancer (SK-OV-3). Kind of assay: Growth inhibition, SRB assay, SK-OV-3. Type of assay: cell-based. The following applies: 72 hours, three independent experiments, read-out: Growth inhibition of cancer cell: GI50, SK-OV-3. How it is done:
as §1, §2, §3

The target of assay [6] is T1, T-type calcium channel (α1G) (Homo sapiens, UniProt O43497).
T1 construct: expressed in transfected cells
Kind of assay: T-type calcium channel blocking, electrophysiological whole-cell patch-clamp in HEK293 cells expressing α1G. The class given is cell-based. Conditions: dose-response curve, three independent experiments, read-out: Channel blocking effect (IC50) T-type (α1G). On the procedure: as §1
Experiment 1: Methods for Culturing HEK293 cells and measuring T-type Calcium Channel Activity Using an Electrophysiological Method
HEK293 cells were cultured in Dulbecco's modified Eagle's medium (DMEM) supplemented with 10% fetal bovine serum (FBS) and 1% penicillin/streptomycin (v/v) in 36.5° C. humidified incubator (95% air-5% CO2). […] The cells used for T-type calcium channel activity assay were cultured on a cover slip coated with poly-L-lysine (0.5 mg/mL) whenever sub-cultured, and their calcium channel activity was recorded 2 to 7 days after the cultivation. Current of the T-type calcium channel at a single cell level was measured according to an electrophysiological whole-cell patch-clamp method using EPC-9 amplifier (HEKA, Germany). […] Inward current caused by the T-type calcium channel activation which occurred when the cells were converted into a whole-cell recording mode by stabbing a microglass electrode having 3-4 MΩ resistance which was filled with the cell interior solution into a single cell and de-polarized at −30 mV (50 ms duration period) every 10 s with fixing membrane potential to −100 mV was measured according to a T-type calcium channel protocol activated at low current.

The subject of a further assay is five cancer cell lines. Kind of assay: Growth inhibition, SRB assay, five cancer cell lines overall. Type of assay: cell-based, human. On the procedure:
as §2
as §3, with “One hundred microliters of 0.4% SRB solution was added to each well and left at room temperature for 30 min. SRB was removed and the plates were washed five times with 1% acetic acid before air-drying. Bound SRB was solubilized with 100 μL of 10 mM unbuffered Tris-base solution (Sigma) and plates were left on a plate shaker for at least 10 min.” left out
The biological activities of doxorubicin and KYS05042 disclosed in Korean Patent No. 0610731 were evaluated as references, and the results are indicated in Table 2.

T1 sequence (O43497 whole entry): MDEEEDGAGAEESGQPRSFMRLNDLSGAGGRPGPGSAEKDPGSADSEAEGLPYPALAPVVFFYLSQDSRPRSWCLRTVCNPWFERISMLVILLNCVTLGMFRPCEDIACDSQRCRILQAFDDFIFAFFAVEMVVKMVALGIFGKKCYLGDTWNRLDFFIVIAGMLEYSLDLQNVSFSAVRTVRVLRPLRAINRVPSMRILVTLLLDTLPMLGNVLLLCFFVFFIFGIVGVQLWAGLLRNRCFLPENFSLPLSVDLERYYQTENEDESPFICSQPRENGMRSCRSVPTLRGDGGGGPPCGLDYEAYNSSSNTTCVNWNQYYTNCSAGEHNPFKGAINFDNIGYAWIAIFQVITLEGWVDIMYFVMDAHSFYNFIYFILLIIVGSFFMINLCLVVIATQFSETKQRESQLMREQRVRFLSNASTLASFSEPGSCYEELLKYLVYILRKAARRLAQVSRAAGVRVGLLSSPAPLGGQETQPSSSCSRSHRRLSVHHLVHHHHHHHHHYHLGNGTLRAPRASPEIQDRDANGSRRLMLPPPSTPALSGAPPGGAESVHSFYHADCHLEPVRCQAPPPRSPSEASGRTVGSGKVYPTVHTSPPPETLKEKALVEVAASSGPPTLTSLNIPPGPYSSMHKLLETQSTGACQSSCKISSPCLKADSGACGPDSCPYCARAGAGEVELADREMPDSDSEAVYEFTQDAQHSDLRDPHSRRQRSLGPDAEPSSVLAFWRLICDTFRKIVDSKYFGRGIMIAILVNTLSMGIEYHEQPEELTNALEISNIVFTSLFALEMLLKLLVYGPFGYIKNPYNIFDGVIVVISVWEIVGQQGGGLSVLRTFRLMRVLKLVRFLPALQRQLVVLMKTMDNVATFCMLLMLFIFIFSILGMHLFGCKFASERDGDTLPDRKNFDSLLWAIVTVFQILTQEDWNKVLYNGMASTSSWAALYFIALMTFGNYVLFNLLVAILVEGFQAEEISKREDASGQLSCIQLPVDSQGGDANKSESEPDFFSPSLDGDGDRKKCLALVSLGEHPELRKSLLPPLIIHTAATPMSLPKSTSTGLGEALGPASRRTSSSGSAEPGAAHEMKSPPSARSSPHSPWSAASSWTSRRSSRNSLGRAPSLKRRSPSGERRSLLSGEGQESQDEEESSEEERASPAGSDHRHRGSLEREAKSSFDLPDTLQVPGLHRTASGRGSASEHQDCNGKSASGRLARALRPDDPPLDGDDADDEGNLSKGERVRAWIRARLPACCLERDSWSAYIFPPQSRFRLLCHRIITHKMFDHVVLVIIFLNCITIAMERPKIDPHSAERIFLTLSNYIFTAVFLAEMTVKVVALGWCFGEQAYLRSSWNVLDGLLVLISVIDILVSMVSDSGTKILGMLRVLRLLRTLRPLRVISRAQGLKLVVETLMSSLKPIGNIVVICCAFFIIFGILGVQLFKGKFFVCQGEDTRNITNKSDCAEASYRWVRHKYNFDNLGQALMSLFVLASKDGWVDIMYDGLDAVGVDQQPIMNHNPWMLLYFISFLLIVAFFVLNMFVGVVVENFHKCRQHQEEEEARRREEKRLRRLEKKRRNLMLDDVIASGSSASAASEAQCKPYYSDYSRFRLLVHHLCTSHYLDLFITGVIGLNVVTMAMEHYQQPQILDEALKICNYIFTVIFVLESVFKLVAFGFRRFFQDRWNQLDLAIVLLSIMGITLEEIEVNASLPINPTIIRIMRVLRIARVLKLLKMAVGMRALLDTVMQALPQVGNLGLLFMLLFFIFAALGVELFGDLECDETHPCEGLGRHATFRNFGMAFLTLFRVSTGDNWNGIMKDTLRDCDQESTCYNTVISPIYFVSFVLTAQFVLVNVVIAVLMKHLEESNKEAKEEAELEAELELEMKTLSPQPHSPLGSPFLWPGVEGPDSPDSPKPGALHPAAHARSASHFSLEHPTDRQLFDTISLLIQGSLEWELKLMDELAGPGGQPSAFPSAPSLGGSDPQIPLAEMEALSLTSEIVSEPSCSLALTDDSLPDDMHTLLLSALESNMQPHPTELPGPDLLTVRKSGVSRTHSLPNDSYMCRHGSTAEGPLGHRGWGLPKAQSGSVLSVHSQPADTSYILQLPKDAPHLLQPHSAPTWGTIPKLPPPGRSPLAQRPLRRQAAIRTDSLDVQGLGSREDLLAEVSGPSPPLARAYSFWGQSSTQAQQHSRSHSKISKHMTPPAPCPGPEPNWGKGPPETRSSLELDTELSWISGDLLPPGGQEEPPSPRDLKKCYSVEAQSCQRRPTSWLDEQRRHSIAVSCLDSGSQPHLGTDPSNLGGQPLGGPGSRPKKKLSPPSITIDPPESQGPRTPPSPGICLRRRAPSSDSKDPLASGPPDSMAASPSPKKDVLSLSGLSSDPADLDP

Turning to `COC(=O)CC1c2ccccc2N=C(N(C)CCCCCN(C)C)N1c1ccc(-c2ccccc2)cc1` (stereo not drawn) [KYS05089, 2-[N-(5-N′,N′-Dimethylaminopentyl)-N-Methylamino]-3-(4-Biphenylyl)-4-Methoxycarbonylmethyl-3,4-Dihydroquinazoline], the concentration for 50% growth inhibition (GI50) in assay [1] was 1780 ± 170 nM; in assay [2] it was 1910 ± 110 nM; in assay [3], 520 ± 240 nM; in assay [4], 1770 ± 160 nM; in assay [5], 1950 ± 40 nM. Besides, the IC50 in assay [6] was determined as 230 ± 30 nM.

Take `CN(C)CCCCCN(C)C1=Nc2ccccc2C(CC(=O)NCc2ccccc2)N1c1ccc(-c2ccccc2)cc1` (stereo not drawn) [KYS05090, 4-(N-Benzylacetamino)-3-(4-Biphenylyl)-2-[N-(5-N′,N′-Dimethylaminopentyl)-N-Methylamino]-3,4-Dihydroquinazoline]: the GI50 turned out to be 190 ± 20 nM in assay [1]; 480 ± 130 nM in assay [2]; 40 ± 10 nM in assay [3]; 170 ± 20 nM in assay [4]; 660 ± 130 nM in assay [5]. In assay [3] (human colon cancer cell line, compared to KYS05042), the “Times stronger activity against human colon cancer cell line compared to KYS05042” value is reported as “about 40 times”. In assay [3] (human colon cancer cell line, compared to doxorubicin), the “Times stronger activity against human colon cancer cell line compared to doxorubicin” value was “about 5 times”. The “Times stronger growth inhibition compared to KYS05042” value in the assay on five cancer cell lines (compared to KYS05042) was “about 10 times”. Besides, in the assay on five cancer cell lines (compared to doxorubicin), the “Growth inhibition compared to doxorubicin” value was “nearly equipotent growth inhibition”. Further, the IC50 in assay [6] was found to be 41 ± 1 nM.

Take `COc1cccc2c1C(=O)c1c(O)c3c(c(O)c1C2=O)C[C@@](O)(C(=O)CO)C[C@@H]3O[C@H]1C[C@H](N)[C@H](O)[C@H](C)O1` [Doxorubicin, doxorubicin, reference compound]: the GI50 in assay [1] was found to be 60 ± 10 nM; in assay [2], 110 ± 10 nM; in assay [3], 210 ± 40 nM; in assay [4] it was 160 ± 10 nM; in assay [5] it was 120 ± 20 nM.

For `CN(CCCCCN1CCCC1)C1=Nc2ccccc2C(CC(=O)NCc2ccccc2)N1c1ccc(-c2ccccc2)cc1` (stereo not drawn) [KYS05080], the GI50 stood at 2490 ± 530 nM in assay [1]; 690 ± 150 nM in assay [2]; 610 ± 120 nM in assay [3]; 870 ± 180 nM in assay [4]; 2760 ± 760 nM in assay [5]. For the same compound, the 50% inhibitory concentration (IC50) in assay [6] amounted to 260 ± 10 nM.
